SMILES strings stand for the structures.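 A five-concentration, 48-hour dose response in 96-well plates underlies each endpoint, interpolated linearly between surrounding concentrations. GI50 is the concentration that inhibits growth by half. TGI is the concentration that stops growth completely.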

Some test systems named below: CCRF-CEM leukemia; OVCAR-8 ovarian; RPMI-8226 leukemia; MALME-3M melanoma; HT29 colon; HOP-92 NSCLC; U251 CNS; UACC-62 melanoma.
Holding throughout (assay): DTP human tumour cell line panel, 48 h

In the case of `Cc1ccn2c(-c3csc(Nc4cccc(O)c4)n3)c(C)nc2c1`, the GI50 is 0.48 µM in the experiment with CCRF-CEM leukemia; 0.611 µM in the experiment with OVCAR-8 ovarian; 0.422 µM in the experiment on RPMI-8226 leukemia; 0.444 µM in the experiment on MALME-3M melanoma; 4.13 µM in the experiment with HT29 colon; 1.75 µM in the experiment with HOP-92 NSCLC. The values for the GI50 with U251 CNS and in the experiment with UACC-62 melanoma were 0.681 µM and 0.712 µM, respectively. Further, the concentration for total growth inhibition (TGI) in the experiment with CCRF-CEM leukemia was above 33 µM; with OVCAR-8 ovarian, 44.9 µM; with RPMI-8226 leukemia, 5.02 µM; in the experiment with MALME-3M melanoma, 25 µM; in the experiment on HT29 colon, 18 µM; in the experiment with HOP-92 NSCLC, 22.7 µM. Besides, the TGI in the experiment on U251 CNS amounted to 10.3 µM; in the experiment on UACC-62 melanoma, 19.2 µM.
As for `CCOC(=O)c1c(C(F)(F)F)n([O-])c2ccc(Cl)cc2[n+]1=O`, the GI50 with CCRF-CEM leukemia is 1.77 µM; with OVCAR-8 ovarian it was 2.06 µM; with RPMI-8226 leukemia, 2.07 µM; in the experiment with MALME-3M melanoma, 1.73 µM; with HT29 colon it was 1.9 µM; in the experiment with HOP-92 NSCLC, 1.17 µM. Further, the GI50 in the experiment on U251 CNS is 1.75 µM; in the experiment on UACC-62 melanoma, 1.72 µM. The TGI was 3.99 µM in the experiment with CCRF-CEM leukemia; 3.9 µM with OVCAR-8 ovarian; 5.13 µM in the experiment with RPMI-8226 leukemia; 3.42 µM in the experiment on MALME-3M melanoma; 3.83 µM in the experiment on HT29 colon; 2.64 µM in the experiment on HOP-92 NSCLC. The TGI with U251 CNS came to 3.36 µM; in the experiment with UACC-62 melanoma it was 3.71 µM.
Take `Cc1cc(NS(=O)(=O)c2ccc(NC(=O)COc3ccc(-c4cc5ccccc5[nH]4)cc3)cc2)no1`: the GI50 is 2.13 µM with CCRF-CEM leukemia; 2.01 µM with OVCAR-8 ovarian; 2.87 µM with RPMI-8226 leukemia; 1.5 µM in the experiment with MALME-3M melanoma; 1.73 µM in the experiment with HT29 colon; 1.3 µM in the experiment with HOP-92 NSCLC. The GI50 is 1.86 µM with U251 CNS and 1.53 µM with UACC-62 melanoma. Also, the concentration for total growth inhibition (TGI) in the experiment with CCRF-CEM leukemia is above 100 µM; in the experiment on OVCAR-8 ovarian it was 4.77 µM; in the experiment on RPMI-8226 leukemia, above 100 µM; in the experiment with MALME-3M melanoma, 3.85 µM; in the experiment with HT29 colon it was 3.44 µM; with HOP-92 NSCLC, 3.83 µM. The TGI was determined as 6.74 µM with U251 CNS and 3.26 µM with UACC-62 melanoma.
As for `Cc1ccc(-c2c3c(N)nc(-c4ccncc4)nc3nc3c2c(C)nn3-c2ccccc2)cc1`, the GI50 was 12.6 µM in the experiment with CCRF-CEM leukemia; 3.63 µM in the experiment on OVCAR-8 ovarian; 18.6 µM in the experiment on RPMI-8226 leukemia; 7.73 µM in the experiment with MALME-3M melanoma; 11.5 µM with HT29 colon; 5.61 µM with HOP-92 NSCLC. The GI50 with U251 CNS was 6.12 µM; in the experiment with UACC-62 melanoma, 13.8 µM. In addition, the total growth inhibition concentration (TGI) in the experiment on CCRF-CEM leukemia is above 37.5 µM; in the experiment with OVCAR-8 ovarian, above 37.5 µM; with RPMI-8226 leukemia it was above 37.5 µM; in the experiment on MALME-3M melanoma, 16.2 µM; in the experiment on HT29 colon it was above 37.5 µM; with HOP-92 NSCLC it was 22 µM. Moreover, the total growth inhibition concentration (TGI) in the experiment with U251 CNS is 31.7 µM; in the experiment on UACC-62 melanoma, above 37.5 µM.
For the compound `Cc1cc(Br)c2nsnc2c1[N+](=O)[O-]`, the GI50 is 2.16 µM in the experiment with CCRF-CEM leukemia; 3.18 µM in the experiment on OVCAR-8 ovarian; 0.666 µM in the experiment on RPMI-8226 leukemia; 2.08 µM in the experiment on MALME-3M melanoma; 2.04 µM with HT29 colon; 7.24 µM in the experiment with HOP-92 NSCLC. Also, the GI50 in the experiment with U251 CNS was 2.73 µM; with UACC-62 melanoma, 7.13 µM. Moreover, the TGI is 5.44 µM in the experiment on CCRF-CEM leukemia; 12.1 µM with OVCAR-8 ovarian; 9.55 µM with RPMI-8226 leukemia; 6.55 µM with MALME-3M melanoma; 4.31 µM in the experiment on HT29 colon; 22.1 µM in the experiment with HOP-92 NSCLC. The TGI with U251 CNS amounted to 8.12 µM; in the experiment with UACC-62 melanoma it was 20 µM.
In the case of `CCc1ccc(Oc2nccc(-c3c(-c4ccc(F)cc4)ncn3C3CCNCC3)n2)cc1`, the GI50 with CCRF-CEM leukemia is 6.77 µM; with OVCAR-8 ovarian, 4.7 µM; in the experiment with RPMI-8226 leukemia it was 5.77 µM; in the experiment on MALME-3M melanoma it was 4.62 µM; in the experiment on HT29 colon, 3.84 µM; in the experiment on HOP-92 NSCLC it was 1.17 µM. Further, the results for the GI50 with U251 CNS and in the experiment with UACC-62 melanoma were 4.06 µM and 4.6 µM, respectively. The TGI in the experiment with CCRF-CEM leukemia was 17.8 µM; in the experiment with OVCAR-8 ovarian, 10.6 µM; in the experiment with RPMI-8226 leukemia, 14.9 µM; in the experiment on MALME-3M melanoma, 9.13 µM; in the experiment on HT29 colon it was 8.15 µM; in the experiment on HOP-92 NSCLC it was 9.53 µM. Besides, the total growth inhibition concentration (TGI) with U251 CNS was 9.16 µM; with UACC-62 melanoma it was 9.08 µM.
With `O=C1c2cccc3cccc(c23)C(=O)N1CC#Cc1ccc2c3c(cccc13)C(=O)N(CCN1CCNCC1)C2=O`, the GI50 in the experiment with CCRF-CEM leukemia was 2.01 µM; in the experiment on OVCAR-8 ovarian, 2.18 µM; in the experiment on RPMI-8226 leukemia, 2.12 µM; in the experiment with MALME-3M melanoma it was 1.84 µM; with HT29 colon it was 2 µM; with HOP-92 NSCLC, 4 µM. Also, the GI50 in the experiment with U251 CNS is 1.87 µM; in the experiment with UACC-62 melanoma, 1.88 µM. In addition, the TGI with CCRF-CEM leukemia was found to be 5.06 µM; in the experiment with OVCAR-8 ovarian it was 5.16 µM; with RPMI-8226 leukemia, 4.49 µM; with MALME-3M melanoma it was 3.7 µM; in the experiment on HT29 colon, 3.96 µM; in the experiment with HOP-92 NSCLC, 20.5 µM. Moreover, the TGI is 3.78 µM in the experiment with U251 CNS and 4.44 µM in the experiment on UACC-62 melanoma.
Consider `COc1ccccc1N(C(C)=O)C1=C(Cl)C(=O)c2ccccc2C1=O`, for which the GI50 with CCRF-CEM leukemia was 1.95 µM; with OVCAR-8 ovarian it was 2.72 µM; in the experiment on RPMI-8226 leukemia, 0.833 µM; with MALME-3M melanoma, 1.66 µM; in the experiment on HT29 colon, 1.89 µM; in the experiment with HOP-92 NSCLC, 0.304 µM. In addition, the GI50 in the experiment with U251 CNS is 2.62 µM; in the experiment on UACC-62 melanoma, 0.502 µM. The TGI with CCRF-CEM leukemia is 5.11 µM; with OVCAR-8 ovarian, above 32.2 µM; with RPMI-8226 leukemia, 3.96 µM; in the experiment with MALME-3M melanoma it was 3.2 µM; with HT29 colon it was 4.45 µM; with HOP-92 NSCLC it was 1.85 µM. Further, the total growth inhibition concentration (TGI) worked out at 11.8 µM in the experiment on U251 CNS and 2.92 µM in the experiment with UACC-62 melanoma.
As to `Cc1cc(N2CCN(C)CC2)nc(N(CCNc2ccnc3cc(Cl)ccc23)Cc2ccco2)n1`, the GI50 with CCRF-CEM leukemia was 3.37 µM; with OVCAR-8 ovarian, 5.33 µM; in the experiment on RPMI-8226 leukemia it was 2.18 µM; in the experiment on MALME-3M melanoma, 1.94 µM; in the experiment on HT29 colon, 2.47 µM; in the experiment on HOP-92 NSCLC, 3.1 µM. Also, the values for the GI50 in the experiment with U251 CNS and in the experiment with UACC-62 melanoma were 3.11 µM and 2.02 µM, respectively. Also, the TGI with CCRF-CEM leukemia worked out at 10.2 µM; in the experiment with OVCAR-8 ovarian, 19.8 µM; in the experiment on RPMI-8226 leukemia, 5.72 µM; in the experiment with MALME-3M melanoma, 3.71 µM; with HT29 colon, 10.4 µM; with HOP-92 NSCLC, 14.9 µM. The total growth inhibition concentration (TGI) in the experiment with U251 CNS is 10.2 µM; in the experiment with UACC-62 melanoma it was 4.01 µM.

As a reminder, the GI50 is the concentration that inhibits growth by half. The TGI is the concentration giving total growth inhibition.

These data come from PubChem BioAssay (NCI).
